According to patent US20120009280A1, “METHOD OF REDUCING THE RATE OF DEGRADATION OF A BIOLOGICAL MATERIAL” (Bio-Energy Ingredients Limited, priority 2009, published 2012):

Key:
total micro-organism = test: Total microbial (plate) count of spent brewer's / wet distiller's grains stored at ambient temperature; assay type: cell-based
Description: Samples of spent brewer's grains were drawn from the discharge line of a brewery in South Africa. The samples, packed in dry ice in a cold box, were transported over a distance of approximately 40 kilometres to a laboratory. At the laboratory, the samples were thoroughly mixed and initially split into a first portion (Portion 1) and a second portion (Portion 2). The second portion was about twice the size of the first. Portion 1 was left untreated. Material produced from Portion 1 and Portion 2 is designated below using the code “AR” (as received).
Portion 2 was placed on a clean, standard, laboratory screen deck with 1.4 mm apertures supported from below. As much water as possible was manually squeezed out with a clean flat plastic disc and the sample was then manually remixed after the squeezing. The squeezed material was then split into a third portion (Portion 3) and a fourth portion (Portion 4) of approximately the same size. Material produced from Portion 3 and Portion 4 is designated below using the code “SO” (squeezed).
Portion 4 was added to a high speed kitchen food-shredder and shredded for about two minutes. The shredded material was then returned to the 1.4 mm aperture screen and squeezed again, as described above, and manually remixed again after the second squeezing to produce a shredded and squeezed portion (Portion 5). Material produced from Portion 5 is designated below using the code “SH” (shredded).
Samples of Portion 1 (“AR”), Portion 3 (“SO”) and Portion 5 (“SH”) were then delivered to a microbiological testing facility about 15 kilometres from the treatment laboratory. Each was tested for initial total microbial, yeast and mould counts, respectively.
Separate untreated samples were similarly stored under insect-proof screens at ambient temperature for seven days (as shown in Tables 1 and 2). During the trial period the ambient temperature ranged from 11 to 33 degrees C.
After exposure to the environment for seven days, all of the samples were tested at a South African National Accreditation System (SANAS) approved microbiological testing facility. Each was tested for total micro-organism, yeast and mould counts to determine the affect of the various treatments.
Samples of spent brewer's grains were drawn from the discharge line of a brewery in South Africa.
At the laboratory, the samples were thoroughly mixed and initially split into a first portion (Portion 1) and a second portion (Portion 2). Portion 1 was left untreated. A sample of Portion 1, was delivered immediately to a microbiological testing facility about 15 kilometres away from the treatment laboratory and was tested for initial total microbial, yeast and mould counts, respectively.
Samples from Portion 2 were subjected to treatment with varying amounts of a powdered, commercially-available calcium oxide containing approximately 94% calcium oxide (CaO) as shown in Table 32. The treatments varied from 2.5 to 10% (w/w) calcium oxide addition. The samples were stored in batches (according to the calcium oxide treatment) under insect-proof screens at ambient temperature for fifty six days. […] During the trial period the ambient temperature ranged from 10 to 30 degrees C. As this period was the southern hemisphere spring/early summer, the humidity as well as ambient temperatures varied widely.
Samples from each treatment were drawn every seven days. No further calcium oxide treatment or agitation took place after the initial mix. In each case the entire sample was isolated and delivered to the microbiological testing facility.
(§1) In this trial the same source of wet distiller's grains (again with now partial water removal prior to treatment) was treated.
as §1

yeast = test: Yeast count of spent brewer's / wet distiller's grains stored at ambient temperature; assay type: cell-based
[1] = dose 5% w/w, distiller's grains not de-watered, Examples 16-18
[2] = wet distiller's grains, 0.5% CaO (w/w), day 1
[3] = wet distiller's grains, 0.5% CaO (w/w), day 3
[4] = wet distiller's grains, 0.5% CaO (w/w), day 6
[5] = wet distiller's grains, 0.5% CaO (w/w), day 8
[6] = wet distiller's grains, 1.0% CaO (w/w), day 2
[7] = wet distiller's grains, 1.0% CaO (w/w), day 3
[8] = wet distiller's grains, 1.0% CaO (w/w), day 6
[9] = wet distiller's grains, 1.0% CaO (w/w), day 8
[10] = wet distiller's grains, 1.0% CaO (w/w), day 10
[11] = wet distiller's grains, 1.5% CaO (w/w), day 1
[12] = wet distiller's grains, 1.5% CaO (w/w), day 2
[13] = wet distiller's grains, 1.5% CaO (w/w), day 3
[14] = wet distiller's grains, 1.5% CaO (w/w), day 6
[15] = wet distiller's grains, 1.5% CaO (w/w), day 8
[16] = wet distiller's grains, 2.0% CaO (w/w), day 1
[17] = wet distiller's grains, 2.0% CaO (w/w), day 3
[18] = wet distiller's grains, 2.0% CaO (w/w), day 6
[19] = wet distiller's grains, 2.0% CaO (w/w), day 8
[20] = wet distiller's grains, 2.0% CaO (w/w), day 10
[21] = wet distiller's grains, 2.5% CaO (w/w), day 1
[22] = wet distiller's grains, 2.5% CaO (w/w), day 2
[23] = wet distiller's grains, 2.5% CaO (w/w), day 3
[24] = wet distiller's grains, 2.5% CaO (w/w), day 6
[25] = wet distiller's grains, 2.5% CaO (w/w), day 7
[26] = wet distiller's grains, 2.5% CaO (w/w), day 8
[27] = wet distiller's grains, 2.5% CaO (w/w), day 10
[28] = wet distiller's grains, 2.5% CaO (w/w), day 21
[29] = wet distiller's grains, 2.5% CaO (w/w), day 56
[30] = wet distiller's grains, 5.0% CaO (w/w), day 7
[31] = wet distiller's grains, 5.0% CaO (w/w), day 14
[32] = wet distiller's grains, 5.0% CaO (w/w), day 42
[33] = wet distiller's grains, 5.0% CaO (w/w), day 49
[34] = wet distiller's grains, 5.0% CaO (w/w), day 56
[35] = wet distiller's grains, 10.0% CaO (w/w), day 7
[36] = wet distiller's grains, 10.0% CaO (w/w), day 21
[37] = wet distiller's grains, 10.0% CaO (w/w), day 42
[38] = wet distiller's grains, 10.0% CaO (w/w), day 49
[39] = wet distiller's grains, 10.0% CaO (w/w), day 56

[O]=[Ca] [calcium oxide]
shelf life of fermentation residue (total micro-organism; 2.5% (w/w) calcium oxide powder added to the fermentation residue): at least 10 days
Total plate count (total micro-organism; 5% CaO (w/w) powder, week 1): 2770 cfu/gram
Total plate count (total micro-organism; 5% CaO (w/w) powder, week 2): 200 cfu/gram
Total plate count (total micro-organism; 5% CaO (w/w) powder, week 3): 4800 cfu/gram
Total plate count (total micro-organism; 5% CaO (w/w) powder, week 4): 10 cfu/gram
Total plate count (total micro-organism; 5% CaO (w/w) powder, week 5): 10 cfu/gram
shelf life of fermentation residue (total micro-organism; 10% (w/w) calcium oxide added to the fermentation residue): at least 63 days
effect on micro-organism levels (total micro-organism; calcium oxide 0.5% (w/w), Example 14): only a very limited effect
suppressed microbial levels up to day (total micro-organism; calcium oxide 1.0% (w/w), Example 14): 8 days
preservation effect period (total micro-organism; calcium oxide 2.5% (w/w), Example 9): only the first week
preservation effect period (total micro-organism; calcium oxide 5.0% (w/w), Example 9): 49 days
preservation effect period (total micro-organism; calcium oxide 10% (w/w), Example 9): 56 days
preservation period (total micro-organism; calcium oxide 10% (w/w), Example 18): 9 week
total microbial count after treatment (total micro-organism; calcium oxide 10% (w/w), spent brewer's grains, initial count 3,300,000): zero
preservation effect period (total micro-organism; calcium oxide levels of 2.0% and 2.5% (w/w), Example 14): 10 days
microbial counts (total micro-organism; calcium oxide powder 5% and 10% (w/w), end of the 9 week period): <10 to 20 cfu/gram
preservation time with total microbial counts <10 cfu/g (total micro-organism; [1]): ≧9 weeks
preservation time with total microbial counts <100 cfu/g (total micro-organism; [1]): ≧9 weeks
preservation time with total microbial counts <1000 cfu/g (total micro-organism; [1]): ≧9 weeks
preservation time with total microbial counts <10 cfu/g (total micro-organism; dose 10% w/w, distiller's grains not de-watered, Examples 16-18): ≧9 weeks
Total plate count (total micro-organism; [2]): 1.01E+06 cfu/gram
Total plate count (total micro-organism; wet distiller's grains, 0.5% CaO (w/w), day 2): 680000 cfu/gram
Total plate count (total micro-organism; [3]): 35000 cfu/gram
Total plate count (total micro-organism; [4]): 5.60E+07 cfu/gram
Total plate count (total micro-organism; [5]): 3.30E+06 cfu/gram
Total plate count (total micro-organism; wet distiller's grains, 1.0% CaO (w/w), day 1): 3.50E+06 cfu/gram
Total plate count (total micro-organism; [6]): 3600 cfu/gram
Total plate count (total micro-organism; [7]): 720 cfu/gram
Total plate count (total micro-organism; [8]): 120 cfu/gram
Total plate count (total micro-organism; [9]): 320 cfu/gram
Total plate count (total micro-organism; [10]): 4.70E+07 cfu/gram
Total plate count (total micro-organism; [11]): 26200 cfu/gram
Total plate count (total micro-organism; [12]): 110 cfu/gram
Total plate count (total micro-organism; [13]): 40 cfu/gram
Total plate count (total micro-organism; [14]): 90 cfu/gram
Total plate count (total micro-organism; [15]): 730 cfu/gram
Total plate count (total micro-organism; wet distiller's grains, 1.5% CaO (w/w), day 10): 70 cfu/gram
Total plate count (total micro-organism; [16]): 1090 cfu/gram
Total plate count (total micro-organism; wet distiller's grains, 2.0% CaO (w/w), day 2): 130 cfu/gram
Total plate count (total micro-organism; [17]): 130 cfu/gram
Total plate count (total micro-organism; [18]): 340 cfu/gram
Total plate count (total micro-organism; [19]): 180 cfu/gram
Total plate count (total micro-organism; [20]): 60 cfu/gram
Total plate count (total micro-organism; [21]): 5300 cfu/gram
Total plate count (total micro-organism; [22]): 60 cfu/gram
Total plate count (total micro-organism; [23]): 240 cfu/gram
Total plate count (total micro-organism; [24]): 90 cfu/gram
Total plate count (total micro-organism; [25]): 10 cfu/gram
Total plate count (total micro-organism; [26]): 150 cfu/gram
Total plate count (total micro-organism; [27]): 50 cfu/gram
Total plate count (total micro-organism; wet distiller's grains, 2.5% CaO (w/w), day 14): 74,000 cfu/gram
Total plate count (total micro-organism; [28]): 1,010,000 cfu/gram
Total plate count (total micro-organism; [29]): 6,800,000 cfu/gram
Total plate count (total micro-organism; [30]): 660 cfu/gram
Total plate count (total micro-organism; [31]): 82,000 cfu/gram
Total plate count (total micro-organism; wet distiller's grains, 5.0% CaO (w/w), day 21): 180 cfu/gram
Total plate count (total micro-organism; [32]): 20 cfu/gram
Total plate count (total micro-organism; [33]): 50 cfu/gram
Total plate count (total micro-organism; [34]): 3,400 cfu/gram
Total plate count (total micro-organism; [35]): 740 cfu/gram
Total plate count (total micro-organism; wet distiller's grains, 10.0% CaO (w/w), day 14): 150 cfu/gram
Total plate count (total micro-organism; [36]): 100 cfu/gram
Total plate count (total micro-organism; [37]): 130 cfu/gram
Total plate count (total micro-organism; [38]): 80 cfu/gram
Total plate count (total micro-organism; [39]): 460 cfu/gram
Yeast Count (yeast; 5% CaO (w/w) powder, week 1): 10 cfu/gram
Yeast Count (yeast; 5% CaO (w/w) powder, week 2): 10 cfu/gram
Yeast Count (yeast; 5% CaO (w/w) powder, week 3): 113 cfu/gram
Yeast Count (yeast; 5% CaO (w/w) powder, week 5): 10 cfu/gram
Yeast Count (yeast; [2]): <10 cfu/gram
Yeast Count (yeast; [3]): <10 cfu/gram
Yeast Count (yeast; [4]): 40000 cfu/gram
Yeast Count (yeast; [5]): <10 cfu/gram
Yeast Count (yeast; [6]): <10 cfu/gram
Yeast Count (yeast; [7]): <10 cfu/gram
Yeast Count (yeast; [8]): <10 cfu/gram
Yeast Count (yeast; [9]): <10 cfu/gram
Yeast Count (yeast; [10]): 20 cfu/gram
Yeast Count (yeast; [11]): <10 cfu/gram
Yeast Count (yeast; [12]): <10 cfu/gram
Yeast Count (yeast; [13]): <10 cfu/gram
Yeast Count (yeast; [14]): <10 cfu/gram
Yeast Count (yeast; [15]): <10 cfu/gram
Yeast Count (yeast; [16]): <10 cfu/gram
Yeast Count (yeast; [17]): <10 cfu/gram
Yeast Count (yeast; [18]): <10 cfu/gram
Yeast Count (yeast; [19]): <10 cfu/gram
Yeast Count (yeast; [20]): <10 cfu/gram
Yeast Count (yeast; [21]): <10 cfu/gram
Yeast Count (yeast; [22]): <10 cfu/gram
Yeast Count (yeast; [23]): <10 cfu/gram
Yeast Count (yeast; [24]): <10 cfu/gram
Yeast Count (yeast; [25]): 10 cfu/gram
Yeast Count (yeast; [26]): <10 cfu/gram
Yeast Count (yeast; [27]): <10 cfu/gram
Yeast Count (yeast; [28]): 53,000 cfu/gram
Yeast Count (yeast; [29]): 115,000 cfu/gram
Yeast Count (yeast; [30]): 10 cfu/gram
Yeast Count (yeast; [31]): 10 cfu/gram
Yeast Count (yeast; [32]): 10 cfu/gram
Yeast Count (yeast; [33]): 20 cfu/gram
Yeast Count (yeast; [34]): 20 cfu/gram
Yeast Count (yeast; [35]): 10 cfu/gram
Yeast Count (yeast; [36]): 10 cfu/gram
Yeast Count (yeast; [37]): 10 cfu/gram
Yeast Count (yeast; [38]): 10 cfu/gram
Yeast Count (yeast; [39]): 10 cfu/gram
